We go through 15 molecules from patent US9221767B2, “Substituted phthalazinones as rock inhibitors” (BRISTOL-MYERS SQUIBB COMPANY, priority 2013, dated 2015).

For orientation: IC50 means the concentration needed to halve the response being measured. A high value points to weaker potency in that assay.

Read-outs that look alike come from different tables or passages of the source.

Test [1] concerns the target ROCK2 (Homo sapiens (Human), UniProt O75116). Nature of the test: ROCK assay (LabChip peptide phosphorylation), ROCK2. It counts as biochemical. The following applies: 5 μM ATP, 1.5 μM peptide substrate. The procedure: (§1) The effectiveness of compounds of the present invention as ROCK inhibitors can be determined in a 30 μL assay containing 20 mM HEPES, pH 7.5, 20 mM MgCl2, 0.015% Brij-35, 4 mM DTT, 5 μM ATP and 1.5 μM peptide substrate (FITC-AHA-[…]-OH). Compounds were dissolved in DMSO so that the final concentration of DMSO was <2%, and the reaction was initiated with Rho kinase variants. After incubation, the reaction was terminated by the addition of EDTA and the phosphorylated and non-phosphorylated peptides separated using a LabChip 3000 Reader (Caliper Life Sciences). […] Compounds were tested in dose-response format, and the inhibition of kinase activity was calculated at each concentration of compound. The inhibition data were fit using a curve-fitting program to determine the IC50; i.e., the concentration of compound required to inhibit 50% of kinase activity.”

Test [2] deals with ROCK1 (Homo sapiens (Human), UniProt Q13464). The test is described as follows: ROCK assay (LabChip peptide phosphorylation), ROCK1. It counts as biochemical. The following applies: 5 μM ATP, 1.5 μM peptide substrate. The procedure: as §1
Test [3] relates to Dahl salt-sensitive rats. The following applies: rat, in vivo; cited from earlier work.
Test [4] has as its system neointimal formation in rats. The following applies: cited from earlier work.
In test [5] the test system is spontaneously hypertensive rat, renal hypertensive rat and deoxycortisone acetate salt hypertensive rat models. Conditions: cited from earlier work.
The test system of test [6] is rat stroke model. The following applies: in vivo; cited from earlier work.
Test [7] has as its system IL-1 beta-induced coronary stenosis. The following applies: long term treatment; cited from earlier work.

ROCK1, sequence (Q13464 whole entry, species assumed): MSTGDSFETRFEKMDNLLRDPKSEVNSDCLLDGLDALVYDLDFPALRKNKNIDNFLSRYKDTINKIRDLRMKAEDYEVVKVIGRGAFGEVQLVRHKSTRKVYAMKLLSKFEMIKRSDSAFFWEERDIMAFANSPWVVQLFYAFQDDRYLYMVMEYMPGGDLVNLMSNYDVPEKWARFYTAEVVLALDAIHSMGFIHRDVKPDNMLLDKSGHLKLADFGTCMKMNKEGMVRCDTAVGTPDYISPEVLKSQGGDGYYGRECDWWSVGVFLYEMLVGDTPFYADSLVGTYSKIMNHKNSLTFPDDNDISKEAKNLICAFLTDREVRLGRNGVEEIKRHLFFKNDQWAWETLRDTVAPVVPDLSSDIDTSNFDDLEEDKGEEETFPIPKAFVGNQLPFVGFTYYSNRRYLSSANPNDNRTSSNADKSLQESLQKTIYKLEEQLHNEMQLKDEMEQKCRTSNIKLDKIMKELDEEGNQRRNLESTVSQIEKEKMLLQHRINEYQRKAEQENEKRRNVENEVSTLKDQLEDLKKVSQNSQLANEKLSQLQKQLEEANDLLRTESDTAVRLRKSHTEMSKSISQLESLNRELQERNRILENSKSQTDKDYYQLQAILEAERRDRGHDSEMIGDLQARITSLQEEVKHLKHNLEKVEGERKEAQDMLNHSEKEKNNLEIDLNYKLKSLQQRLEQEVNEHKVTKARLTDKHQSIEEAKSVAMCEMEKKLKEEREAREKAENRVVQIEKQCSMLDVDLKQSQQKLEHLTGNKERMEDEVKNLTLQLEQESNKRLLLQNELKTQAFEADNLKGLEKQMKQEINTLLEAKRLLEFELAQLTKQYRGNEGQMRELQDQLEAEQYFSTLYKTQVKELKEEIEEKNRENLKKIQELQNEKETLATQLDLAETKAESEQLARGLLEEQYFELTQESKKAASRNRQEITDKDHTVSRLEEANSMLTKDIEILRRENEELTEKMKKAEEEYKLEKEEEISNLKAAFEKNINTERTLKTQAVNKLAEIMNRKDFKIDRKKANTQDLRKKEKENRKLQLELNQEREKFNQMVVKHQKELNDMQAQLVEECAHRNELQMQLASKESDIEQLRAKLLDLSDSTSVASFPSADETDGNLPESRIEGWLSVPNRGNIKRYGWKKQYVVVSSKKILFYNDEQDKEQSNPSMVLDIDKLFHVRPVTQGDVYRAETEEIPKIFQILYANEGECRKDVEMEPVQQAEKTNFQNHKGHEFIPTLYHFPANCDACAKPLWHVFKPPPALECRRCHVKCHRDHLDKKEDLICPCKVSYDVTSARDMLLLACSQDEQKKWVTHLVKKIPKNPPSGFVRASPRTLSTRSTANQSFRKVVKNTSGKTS
ROCK2, sequence (O75116 whole entry, species assumed): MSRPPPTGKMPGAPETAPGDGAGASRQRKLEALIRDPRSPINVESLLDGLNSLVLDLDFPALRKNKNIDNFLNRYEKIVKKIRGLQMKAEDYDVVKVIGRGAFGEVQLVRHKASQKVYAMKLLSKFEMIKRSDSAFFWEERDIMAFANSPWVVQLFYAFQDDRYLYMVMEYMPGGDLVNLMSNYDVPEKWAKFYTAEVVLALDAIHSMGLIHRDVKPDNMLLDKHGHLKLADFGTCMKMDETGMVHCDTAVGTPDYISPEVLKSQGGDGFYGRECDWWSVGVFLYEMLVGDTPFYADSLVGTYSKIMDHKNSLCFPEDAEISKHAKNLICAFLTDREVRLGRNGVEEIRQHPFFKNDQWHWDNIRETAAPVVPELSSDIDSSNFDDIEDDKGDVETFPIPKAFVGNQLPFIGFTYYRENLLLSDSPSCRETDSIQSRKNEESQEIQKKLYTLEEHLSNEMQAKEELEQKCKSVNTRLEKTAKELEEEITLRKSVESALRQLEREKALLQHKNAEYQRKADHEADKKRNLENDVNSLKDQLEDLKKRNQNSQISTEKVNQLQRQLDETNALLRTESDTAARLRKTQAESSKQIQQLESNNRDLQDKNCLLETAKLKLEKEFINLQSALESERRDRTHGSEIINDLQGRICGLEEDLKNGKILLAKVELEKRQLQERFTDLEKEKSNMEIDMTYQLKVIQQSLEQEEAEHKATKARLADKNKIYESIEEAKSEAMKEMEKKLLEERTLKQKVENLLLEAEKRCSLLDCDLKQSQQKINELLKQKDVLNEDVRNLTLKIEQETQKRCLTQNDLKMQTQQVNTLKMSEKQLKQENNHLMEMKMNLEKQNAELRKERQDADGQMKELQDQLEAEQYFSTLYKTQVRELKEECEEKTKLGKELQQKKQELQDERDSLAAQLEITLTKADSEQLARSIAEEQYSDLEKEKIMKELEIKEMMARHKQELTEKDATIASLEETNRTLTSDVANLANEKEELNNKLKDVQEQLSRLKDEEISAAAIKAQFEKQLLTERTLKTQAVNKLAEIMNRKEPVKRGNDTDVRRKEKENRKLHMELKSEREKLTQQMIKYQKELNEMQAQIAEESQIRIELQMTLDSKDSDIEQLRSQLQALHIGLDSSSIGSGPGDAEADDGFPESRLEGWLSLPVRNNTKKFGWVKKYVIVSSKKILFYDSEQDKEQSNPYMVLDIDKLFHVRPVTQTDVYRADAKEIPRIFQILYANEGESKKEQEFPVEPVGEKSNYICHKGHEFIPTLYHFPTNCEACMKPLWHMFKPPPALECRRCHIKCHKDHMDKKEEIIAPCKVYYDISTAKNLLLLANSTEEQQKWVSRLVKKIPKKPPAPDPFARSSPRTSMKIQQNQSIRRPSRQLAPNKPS

With `O=C(Cc1ccc(-c2n[nH]c(=O)c3ccccc23)cc1)N1Cc2ccc(F)cc2C1` [Example 2, 4-(4-(2-(5-fluoroisoindolin-2-yl)-2-oxoethyl)phenyl)phthalazin-1(2H)-one], the IC50 in test [1] was determined as 30 nM; in test [2] it was 679 nM.
`O=C(Cc1ccc(-c2n[nH]c(=O)c3ccccc23)cc1)Nc1nc2ccccc2o1` [Example 10]: the 50% inhibitory concentration (IC50) in test [1] was 17 nM; in test [2] it was 729 nM.
For `COC[C@@H]1CCCN1C(=O)Cc1ccc(-c2n[nH]c(=O)c3ccccc23)cc1` [Example 13] the same measures were 9730 nM and 16200 nM.
Take `O=C(Cc1ccc(-c2n[nH]c(=O)c3ccccc23)cc1)NC1CCC1` [Example 19]: the results for the half-inhibitory concentration (IC50) in test [1] and in test [2] were 5830 nM and 6480 nM, respectively.
For `CCOc1ccc2c(c1)N(C(=O)Cc1ccc(-c3n[nH]c(=O)c4ccccc34)cc1)CC2` [Example 33] the same measures were 1.2 nM and 23 nM.
In the case of `O=C(Cc1ccc(-c2n[nH]c(=O)c3ccccc23)cc1)N1CCCc2ccccc21` [Example 34], the figures for the IC50 in test [1] and in test [2] were 553 nM and 11900 nM, respectively.
For `O=C(Nc1ccc(-c2n[nH]c(=O)c3ccccc23)cc1)c1csc(-c2ccc(C(F)(F)F)cc2)n1` [Example 48] the same measures were 39 nM and 670 nM.
Take `Cn1ccnc1C(=O)Nc1ccc(-c2n[nH]c(=O)c3ccccc23)cc1` [Example 52]: the IC50 in test [1] was 225 nM; in test [2] it was 544 nM.
Turning to `CN(C)c1ccc(C(=O)Nc2ccc(-c3n[nH]c(=O)c4ccccc34)cc2)cc1` [Example 58], the IC50 in test [1] was 0.3 nM; in test [2], 35 nM.
With `O=C(Nc1ccc(-c2n[nH]c(=O)c3ccccc23)cc1)c1ccc(N2CCCCC2)cc1` [Example 61], the IC50 in test [1] was 2.1 nM; in test [2], 49 nM.
Consider `O=C(Nc1ccc(-c2n[nH]c(=O)c3ccccc23)cc1)c1ccccc1` [Example 67], for which the 50% inhibitory concentration (IC50) in test [1] was determined as 14 nM; in test [2], 175 nM.
Taken in the same sequence, the figures for `O=C(Oc1ccc(-c2n[nH]c(=O)c3ccccc23)cc1)N1CCC(c2ccccc2)C1` (stereo not shown) [Example 69, 4-(4-oxo-3,4-dihydrophthalazin-1-yl)phenyl 3-phenylpyrrolidine-1-carboxylate] were 894 nM and 50000 nM.
In the case of `O=C(Nc1ccc(-c2n[nH]c(=O)c3ccccc23)cc1)N1CCc2ccccc21` [Example 76, N-(4-(4-oxo-3,4-dihydrophthalazin-1-yl)phenyl)indoline-1-carboxamide], the IC50 in test [1] stood at 1.2 nM; in test [2], 20 nM.
For the molecule `C[C@@H](N)[C@H]1CC[C@H](C(=O)Nc2ccncc2)CC1` [Example Y-27632, Y-27632], the “ventricular hypertrophy, fibrosis and function” value in test [3] was “improve ventricular hypertrophy, fibrosis and function”. Further, in test [4], the neointimal formation result is on record as “inhibited neointimal formation”. For the same molecule, the blood pressure entry in test [5] (control rats) is reported as “only a minor effect on blood pressure”; in test [5] (three rat models of hypertension) it was “significantly decrease blood pressure”.
As for `O=S(=O)(c1cccc2cnccc12)N1CCCNCC1` [fasudil], in test [6], the infarct size result is given as “reduce” and the neurologic deficit entry is recorded as “reduce”. For the same molecule, in test [7], the coronary constrictive remodeling result is recorded as “promote a regression of coronary constrictive remodeling” and the coronary stenosis result is listed as “progressively reduce coronary stenosis”.
